≈ marks a conversion by molar mass, not a printed value.
Key:
Assay type in all cases: functional
[1] = system: Acinetobacter calcoaceticus; test: Minimum inhibitory concentration (MIC) against Acinetobacter calcoaceticus 5473
Staphylococcus aureus [2] = test: Minimum inhibitory concentration (MIC) against Staphylococcus aureus giorgio
Escherichia coli [3] = test: Minimum inhibitory concentration (MIC) against Escherichia coli 3190Y
Pseudomonas aeruginosa = test: Minimum inhibitory concentration (MIC) against Pseudomonas aeruginosa 1912E; details: Pseudomonas aeruginosa; read-out: MIC
Staphylococcus aureus [4] = test: Minimum inhibitory concentration (MIC) against Staphylococcus aureus 6538p.
Staphylococcus aureus [5] = test: Minimum inhibitory concentration (MIC) against Staphylococcus aureus 241; details: Staphylococcus aureus; read-out: MIC
Escherichia coli [6] = test: Minimum inhibitory concentration (MIC) against Escherichia coli TEM9 2639E; details: Escherichia coli; read-out: MIC
Enterobacter cloacae = test: Minimum inhibitory concentration (MIC) against Enterobacter cloacae P99
[7] = system: Staphylococcus epidermidis; test: Minimum inhibitory concentration (MIC) against Staphylococcus epidermidis 178; details: Staphylococcus epidermidis; read-out: MIC
Enterococcus faecalis = test: Minimum inhibitory concentration (MIC) against Streptococcus faecalis 29212; details: Enterococcus faecalis; read-out: MIC
Escherichia coli [8] = test: Minimum inhibitory concentration (MIC) against Escherichia coli 10536
Klebsiella aerogenes = test: Minimum inhibitory concentration (MIC) against Klebsiella aerogenes 1082E; details: Klebsiella aerogenes; read-out: MIC
[9] = system: Staphylococcus epidermidis; test: Minimum inhibitory concentration (MIC) against Staphylococcus epidermidis 887E
Bacillus subtilis = test: Minimum inhibitory concentration (MIC) against Bacillus subtilis ATCC 6633
[10] = system: Acinetobacter calcoaceticus; test: Minimum inhibitory concentration (MIC) against Acinetobacter calcoaceticus 15473; details: Acinetobacter calcoaceticus; read-out: MIC

| MIC [1] | MIC (Staphylococcus aureus [2]) | MIC (Escherichia coli [3]) | MIC (Pseudomonas aeruginosa) | MIC (Staphylococcus aureus [4]) | MIC (Staphylococcus aureus [5]) | MIC (Escherichia coli [6]) | MIC (Enterobacter cloacae) | MIC [7] | MIC (Enterococcus faecalis) | MIC (Escherichia coli [8]) | MIC (Klebsiella aerogenes) | MIC [9] | MIC (Bacillus subtilis) | MIC [10] | SMILES |
| --- | --- | --- | --- | --- | --- | --- | --- | --- | --- | --- | --- | --- | --- | --- | --- |
| 0.25 µg/mL (≈ 0.591 µM) | 0.016 µg/mL (≈ 0.0378 µM) | 0.016 µg/mL (≈ 0.0378 µM) | 1 µg/mL (≈ 2.36 µM) | 0.031 µg/mL (≈ 0.0733 µM) | 1 µg/mL (≈ 2.36 µM) | 0.25 µg/mL (≈ 0.591 µM) | 0.063 µg/mL (≈ 0.149 µM) | 1 µg/mL (≈ 2.36 µM) | 0.13 µg/mL (≈ 0.307 µM) | 0.031 µg/mL (≈ 0.0733 µM) | 0.25 µg/mL (≈ 0.591 µM) | 0.031 µg/mL (≈ 0.0733 µM) | 0.016 µg/mL (≈ 0.0378 µM) |  | CO/N=C1\CN(c2c(F)cc3c(=O)c(C(=O)O)cn(C4CC4)c3c2Cl)CC1CN (stereo unspecified) |
| 0.13 µg/mL (≈ 0.335 µM) | 0.016 µg/mL (≈ 0.0412 µM) | < 0.008 µg/mL | 0.25 µg/mL (≈ 0.644 µM) | 0.008 µg/mL (≈ 0.0206 µM) | 4 µg/mL (≈ 10.3 µM) | 0.031 µg/mL (≈ 0.0798 µM) | 0.008 µg/mL (≈ 0.0206 µM) | 4 µg/mL (≈ 10.3 µM) | 0.031 µg/mL (≈ 0.0798 µM) | < 0.008 µg/mL | 0.031 µg/mL (≈ 0.0798 µM) | 0.016 µg/mL (≈ 0.0412 µM) | < 0.008 µg/mL |  | CO/N=C1\CN(c2cc3c(cc2F)c(=O)c(C(=O)O)cn3C2CC2)CC1CN (stereo unspecified) |
|  | < 0.008 µg/mL | < 0.008 µg/mL | 0.5 µg/mL (≈ 1.24 µM) | < 0.008 µg/mL | 2 µg/mL (≈ 4.96 µM) | 0.031 µg/mL (≈ 0.0768 µM) | < 0.008 µg/mL | 2 µg/mL (≈ 4.96 µM) | 0.063 µg/mL (≈ 0.156 µM) | < 0.008 µg/mL | 0.031 µg/mL (≈ 0.0768 µM) | < 0.008 µg/mL | < 0.008 µg/mL | 0.016 µg/mL (≈ 0.0397 µM) | CCO/N=C1\CN(c2nc3c(cc2F)c(=O)c(C(=O)O)cn3C2CC2)CC1CN (stereo unspecified) |
|  | 0.031 µg/mL (≈ 0.0826 µM) | 0.016 µg/mL (≈ 0.0426 µM) | 2 µg/mL (≈ 5.33 µM) | 0.031 µg/mL (≈ 0.0826 µM) | 8 µg/mL (≈ 21.3 µM) | 0.13 µg/mL (≈ 0.346 µM) | 0.031 µg/mL (≈ 0.0826 µM) | 8 µg/mL (≈ 21.3 µM) | 0.25 µg/mL (≈ 0.666 µM) | 0.031 µg/mL (≈ 0.0826 µM) | 0.13 µg/mL (≈ 0.346 µM) | 0.031 µg/mL (≈ 0.0826 µM) | 0.016 µg/mL (≈ 0.0426 µM) | 0.13 µg/mL (≈ 0.346 µM) | NCC1CN(c2nc3c(cc2F)c(=O)c(C(=O)O)cn3C2CC2)C/C1=N\O (stereo unspecified) |
|  | < 0.008 µg/mL | < 0.008 µg/mL | 1 µg/mL (≈ 2.15 µM) | < 0.008 µg/mL | 2 µg/mL (≈ 4.3 µM) | 0.063 µg/mL (≈ 0.135 µM) | < 0.008 µg/mL | 2 µg/mL (≈ 4.3 µM) | 0.031 µg/mL (≈ 0.0666 µM) | < 0.008 µg/mL | 0.063 µg/mL (≈ 0.135 µM) | < 0.008 µg/mL | < 0.008 µg/mL | < 0.008 µg/mL | NCC1CN(c2nc3c(cc2F)c(=O)c(C(=O)O)cn3C2CC2)C/C1=N\OCc1ccccc1 (stereo unspecified) |
| 0.031 µg/mL (≈ 0.0736 µM) | < 0.008 µg/mL | 0.016 µg/mL (≈ 0.038 µM) | 0.25 µg/mL (≈ 0.593 µM) | < 0.008 µg/mL | 0.25 µg/mL (≈ 0.593 µM) | 0.016 µg/mL (≈ 0.038 µM) | < 0.008 µg/mL | 0.25 µg/mL (≈ 0.593 µM) | 0.016 µg/mL (≈ 0.038 µM) | < 0.008 µg/mL | 0.016 µg/mL (≈ 0.038 µM) | < 0.008 µg/mL | < 0.008 µg/mL |  | CO/N=C1\CN(c2c(F)c(N)c3c(=O)c(C(=O)O)cn(C4CC4)c3c2F)CC1CN (stereo unspecified) |
|  | 0.063 µg/mL (≈ 0.16 µM) | 0.063 µg/mL (≈ 0.16 µM) | 2 µg/mL (≈ 5.07 µM) | 0.031 µg/mL (≈ 0.0786 µM) | 4 µg/mL (≈ 10.1 µM) | 0.5 µg/mL (≈ 1.27 µM) | 0.13 µg/mL (≈ 0.33 µM) | 4 µg/mL (≈ 10.1 µM) | 0.25 µg/mL (≈ 0.634 µM) | 0.063 µg/mL (≈ 0.16 µM) | 0.5 µg/mL (≈ 1.27 µM) | 0.063 µg/mL (≈ 0.16 µM) | 0.031 µg/mL (≈ 0.0786 µM) | 1 µg/mL (≈ 2.54 µM) | CCn1cc(C(=O)O)c(=O)c2cc(F)c(N3C/C(=N\OC)C(CN)C3)c(F)c21 (stereo unspecified) |
|  | < 0.008 µg/mL | < 0.008 µg/mL | 1 µg/mL (≈ 2.4 µM) | < 0.008 µg/mL | 2 µg/mL (≈ 4.79 µM) | 0.063 µg/mL (≈ 0.151 µM) | < 0.008 µg/mL | 1 µg/mL (≈ 2.4 µM) | 0.063 µg/mL (≈ 0.151 µM) | < 0.008 µg/mL | 0.13 µg/mL (≈ 0.311 µM) | < 0.008 µg/mL | < 0.008 µg/mL | 0.031 µg/mL (≈ 0.0743 µM) | CC(C)O/N=C1\CN(c2nc3c(cc2F)c(=O)c(C(=O)O)cn3C2CC2)CC1CN (stereo unspecified) |
|  | 0.016 µg/mL (≈ 0.0382 µM) | 0.031 µg/mL (≈ 0.0741 µM) | 2 µg/mL (≈ 4.78 µM) | 0.031 µg/mL (≈ 0.0741 µM) | 1 µg/mL (≈ 2.39 µM) | 0.25 µg/mL (≈ 0.597 µM) | 0.063 µg/mL (≈ 0.151 µM) | 1 µg/mL (≈ 2.39 µM) | 0.063 µg/mL (≈ 0.151 µM) | 0.063 µg/mL (≈ 0.151 µM) | 0.25 µg/mL (≈ 0.597 µM) | 0.031 µg/mL (≈ 0.0741 µM) | 0.031 µg/mL (≈ 0.0741 µM) | 0.25 µg/mL (≈ 0.597 µM) | CO/N=C1\CN(c2c(F)cc3c(=O)c(C(=O)O)cn(C4CC4)c3c2OC)CC1CN (stereo unspecified) |

— ChEMBL document CHEMBL1130203, “Novel fluoroquinolone antibacterial agents containing oxime-substituted (aminomethyl)pyrrolidines: synthesis and antibacterial activity of 7-(4-(aminomethyl)-3-(methoxyimino)pyrrolidin-1-yl)-1-cyclopropyl-6- fluoro-4-oxo-1,4-dihydro[1,8]naphthyridine-3-carboxylic acid (LB20304)” (J Med Chem, 1997)
